In patent publication US11753445B2, “Therapeutic peptides” (COHBAR, INC., priority 2016, dated 2023):
“And” between values parts separate entries of the source, which are not always exact repeats. Equal entries are not always repeated. Ends that are not written are not given here.

What was measured:
[1] = test system: Diet Induced Obese (DIO) mice; assay: Body weight and fat mass in Diet Induced Obese mice, 10 days (Example 20); format: in vivo, Male C57BL/6 mice; settings: male DIO mice, N = 8, Mean (SEM)
Experimental: Male C57BL/6 mice were maintained on a high fat diet for 18 weeks to develop diet induced obesity. Animals were randomized to treatment groups based on blood glucose levels and body weight. The peptides of the invention were administered to two groups of male DIG mice once or twice daily by intraperitoneal or subcutaneous injection at a doses of 5 to 15 mg/kg/dose for 10 days (N=8 animals per treatment group). An additional group of male DIG mice (n=8) received vehicle (water or saline) alone. Body weight, blood glucose levels and food intake were monitored. Body mass distribution (fat vs lean) was determined by quantitative whole body NMR prior to dosing and at the end of dosing. Administration of the peptides of the invention produced body weight loss and/or decrease in fat mass from baseline values (Table 18).

3T3-L1 Adipocytes [2] = assay: Free fatty acid levels in cultured mouse 3T3-L1 adipocytes, isoproterenol stimulated (Example 17); format: cell-based; settings: Peptide Concentration 25 μM; isoproterenol 1 nM
Experimental: Mouse 3T3-L1 cells were seeded at a density between 1,000-20,000 cells per well on 96-well, 48-well, or 24-well plates in Pre-adipocyte Medium (Zen-Bio, Durham, N.C.) and grown to confluence at 37° C. in a humidified atmosphere of 5% CO2/95% air. Two days after confluence, cells were placed in Adipocyte Differentiation Medium (Zen-Bio, Durham, N.C.) and cultured for three additional days at 37° C. in a humidified atmosphere of 5% CO2/95% air. The culture media was then replaced with Adipocyte Maintenance Medium (Zen-Bio) and the cells were maintained for an additional 9-14 days at 37° C. in a humidified atmosphere of 5% CO2/95% air with partial medium replacement every other day. Following 12-17 days of differentiation, test peptides were added at a final concentration of 25-50 μM and incubated for 18-20 hours in Adipocyte Maintenance Medium at 37° C. in a humidified atmosphere of 5% CO2/95%. After the media incubation, media was removed and exchanged with Assay Buffer (Zen-Bio) containing isoproterenol (1 nM) (added to all samples except untreated controls) and the test peptides. Cells were incubated for a further 3 hours at 37° C. in a humidified atmosphere of 5% CO2/95%. Free fatty acid concentrations in the media were determined using a Free Fatty Acid Assay Kit (Zen-Bio) according to the manufacturer's instructions using a plate reader (540 nm).
Absorbance values were corrected for untreated background and expressed relative to isoproterenol treated cells. Treatment with isoproterenol (1 nM) alone was used as the free fatty acid level stimulatory control. The relative standard deviation of the isoproterenol control was <10%. […] Free fatty acid levels for insulin (100 nM) treatment were <5% of the isoproterenol control value.

3T3-L1 Adipocytes [3] = assay: Free fatty acid levels in cultured mouse 3T3-L1 adipocytes, isoproterenol stimulated (Example 2); format: cell-based; settings: test peptides 25 μM; isoproterenol 1 nM
Procedure, shortened: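 Release of free fatty acids, read at 540 nm, was stimulated with 1 nM isoproterenol for 3 h in mouse 3T3-L1 adipocytes (12–17 days of differentiation). Cells were pre-exposed to 25 μM peptide for 18–20 h plus 1 h, with peptide kept in during stimulation. Values are background-subtracted and normalised to isoproterenol alone.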

Human Primary Adipocytes [4] = assay: Free fatty acid levels in cultured human primary adipocytes, forskolin stimulated (Example 5); format: cell-based; settings: test peptides 25 μM; forskolin 1 μM
Procedure, shortened: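 Differentiated human primary adipocytes (14–24 days) were exposed to peptides at 25 μM for 18–20 h and 1 h, then stimulated with 1 μM forskolin plus peptide for 3 h at 37 °C. Medium free fatty acids were measured colorimetrically (540 nm), background-corrected and expressed relative to forskolin-only cells.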

Human Primary Adipocytes [5] = assay: Free fatty acid levels in cultured human primary adipocytes, isoproterenol stimulated (Example 4); format: cell-based; settings: test peptides 25 μM; isoproterenol 1 nM
Experimental: Human primary adipocytes were seeded at 5,000-100,000 cells per well on 96-well, 48-well, or 24-well plates in Pre-adipocyte Medium (Zen-Bio, Durham, N.C.) and grown to confluence at 37° C. in a humidified atmosphere of 5% CO2/95% air. Two days after confluence, cells were placed in Adipocyte Differentiation Medium (Zen-Bio, Durham, N.C.) and cultured for three additional days at 37° C. in a humidified atmosphere of 5% CO2/95% air. The culture media was then replaced with Adipocyte Maintenance Medium (Zen-Bio) and the cells were maintained for an additional 11-21 days at 37° C. in a humidified atmosphere of 5% CO2/95% air with partial medium replacement every other day. Following 14-24 days of differentiation, test peptides were added at a final concentration of 25 μM and incubated for 18-20 hours in Adipocyte Maintenance Medium at 37° C. in a humidified atmosphere of 5% CO2/95%. After 18-20 hours, the media was exchanged with fresh Adipocyte Maintenance Medium containing test peptides and incubated for 1 h at 37° C. in a humidified atmosphere of 5% CO2/95%. After 1 h media was exchanged with Assay Buffer (Zen-Bio) containing isoproterenol (1 nM) (added to all samples except untreated controls) and test peptides. Cells were incubated for a further 3 hours at 37° C. in a humidified atmosphere of 5% CO2/95%. Free fatty acid concentrations in the media were determined using a Free Fatty Acid Assay Kit (Zen-Bio) according to the manufacturer's instructions using a plate reader (540 nm). Absorbance values were corrected for untreated background and expressed relative to isoproterenol treated cells. Treatment with isoproterenol (1 nM) alone was used as the free fatty acid level stimulatory control. The relative standard deviation of the isoproterenol control was <14%. […] Free fatty acid levels for insulin (100 nM) treatment were <5% of the isoproterenol control value.

3T3-L1 Adipocytes [6] = assay: Free fatty acid levels in cultured mouse 3T3-L1 adipocytes, forskolin stimulated (Example 3); format: cell-based; settings: test peptides 25 μM; forskolin 1 μM
Experimental: Mouse 3T3-L1 cells were seeded at 1,000-20,000 cells per well on 96-well, 48-well, or 24-well plates in Pre-adipocyte Medium (Zen-Bio, Durham, N.C.) and grown to confluence at 37° C. in a humidified atmosphere of 5% CO2/95% air. Two days after confluence, cells were placed in Adipocyte Differentiation Medium (Zen-Bio, Durham, N.C.) and cultured for three additional days at 37° C. in a humidified atmosphere of 5% CO2/95% air. The culture media was then replaced with Adipocyte Maintenance Medium (Zen-Bio) and the cells were maintained for an additional 9-14 days at 37° C. in a humidified atmosphere of 5% CO2/95% air with partial medium replacement every other day. Following 12-17 days of differentiation, test peptides were added at a final concentration of 25 μM and incubated for 18-20 hours in Adipocyte Maintenance Medium at 37° C. in a humidified atmosphere of 5% CO2/95%. After 18-20 hours, the media was exchanged with fresh Adipocyte Maintenance Medium containing test peptides and incubated for 1 h at 37° C. in a humidified atmosphere of 5% CO2/95%. After 1 h media was exchanged with Assay Buffer (Zen-Bio) containing forskolin (1 μM) (added to all samples except untreated controls) and test peptides. Cells were incubated for a further 3 hours at 37° C. in a humidified atmosphere of 5% CO2/95%. Free fatty acid concentrations in the media were determined using a Free Fatty Acid Assay Kit (Zen-Bio) according to the manufacturer's instructions using a plate reader (540 nm). Absorbance values were corrected for untreated background and expressed relative to forskolin treated cells. Treatment with forskolin (1 μM) alone was used as the free fatty acid level stimulatory control. The relative standard deviation of the forskolin control was <10%. […] Free fatty acid levels for insulin (100 nM) treatment were <9% of the forskolin control value.

[7] = Stability in mouse plasma, peptides 100 uM (Example 14); format: in vitro ADME; settings: mouse plasma 37° C., peptide 100 uM; for remaining at 0.25 h, 100 uM / remaining at 0.5 h, 100 uM / remaining at 1 h, 100 uM / remaining at 2 h, 100 uM / remaining at 3 h, 100 uM: pooled mouse plasma; for remaining at 0.25 h, 100 uM: 15 min, read-out: % Remaining at Each Time Point: 15 min; for remaining at 0.5 h, 100 uM: 30 min, read-out: % Remaining at Each Time Point: 30 min; for remaining at 1 h, 100 uM: 60 min, read-out: % Remaining at Each Time Point: 60 min; for remaining at 2 h, 100 uM: 120 min, read-out: % Remaining at Each Time Point: 120 min; for remaining at 3 h, 100 uM: 180 min, read-out: % Remaining at Each Time Point: 180 min
Experimental: (§1) Peptides (100 uM) were incubated in pooled mouse plasma at 37° C. and samples were removed and immediately analyzed for the concentration of intact peptide by LC/MS/MS over the course of 3 hours. The percent of peptide remaining in plasma at each time point was calculated relative to the initial peak area (Table 12).

[8] = Stability in mouse plasma, peptides 10 uM (Example 15); format: in vitro ADME; settings: mouse plasma 37° C., peptide 10 uM
Experimental: as §1, with “(10” for “(100”, “13).” for “12).”

[9] = 10 days once daily administration 15 mg/kg
[10] = 10 days twice daily intraperitoneal 15 mg/kg

Row | Substance | % Remaining at Each Time Point: 0 min [7] [%] | remaining at 0.25 h, 100 uM [7] [%] | remaining at 0.5 h, 100 uM [7] [%] | remaining at 1 h, 100 uM [7] [%] | remaining at 2 h, 100 uM [7] [%] | remaining at 3 h, 100 uM [7] [%] | Free Fatty Acid Levels in 3T3-L1 Adipocytes Expressed as a Percent of Isoproterenol Control: Percent of Control Value (3T3-L1 Adipocytes [3]) | Free Fatty Acid Levels in Human Primary Adipocytes Expressed as a Percent of Forskolin Control: Percent of Control Value (Human Primary Adipocytes [4]) [%] | Free Fatty Acid Levels in Human Primary Adipocytes Expressed as a Percent of Isoproterenol Control: Percent of Control Value (Human Primary Adipocytes [5]) [%] | Free Fatty Acid Levels in 3T3-L1 Adipocytes Expressed as a Percent of Forskolin Control: Percent of Control Value (3T3-L1 Adipocytes [6]) [%] | also measured
1 | 357 (PEG600-KRWQEMNYIFYPR) [compound 357] | – | – | – | – | – | – | – | – | – | – | Decrease from Baseline in Body Weight (%) [1, 9]: −1.2 (0.6) %; Decrease from Baseline in Fat Mass (g) [1, 9]: −0.2 (0.2) g; Decrease from Baseline in Body Weight (%) [1, 10]: −3.4 (1.0) %; Decrease from Baseline in Fat Mass (g) [1, 10]: −1.0 (0.4) g; Free Fatty Acid Levels in 3T3-L1 Adipocytes Expressed as a Percent of Isoproterenol Control: Percent of Control Value (3T3-L1 Adipocytes [2]): 30.8%
2 | Ac-RWQEMGYIFYPRKLR-NH2 [compound 52] | – | – | – | – | – | – | 85.6% and 99.5% | 107 | 126 | 88.0 | –
3 | H-MRWQEMGYIFYPRK-OH [compound 46] | 100 | 28.1 | 26.4 | 31.4 | 12.4 | 12.6 | 43.1% | 73.9 | 71.6 | 66.8 | –
4 | H-QEMGYIFYPRKLR-OH [compound 40] | – | – | – | – | – | – | 83.1% | 107 | 122 | 96.1 | –
5 | H-RWQEMNYIFYP-OH [compound 283] | – | – | – | – | – | – | 90.8% | – | – | – | Decrease from Baseline in Body Weight (%) [1, 10]: −5.5 (0.4) %; Decrease from Baseline in Fat Mass (g) [1, 10]: −3.0 (0.2) g; % Remaining at Each Time Point: 0 min ([8]; 0 min): 100%; remaining at 0.25 h, 10 uM ([8]; pooled mouse plasma, 15 min, read-out: % Remaining at Each Time Point: 15 min): 54.3%; remaining at 0.5 h, 10 uM ([8]; pooled mouse plasma, 30 min, read-out: % Remaining at Each Time Point: 30 min): 25.8%; remaining at 1 h, 10 uM ([8]; pooled mouse plasma, 60 min, read-out: % Remaining at Each Time Point: 60 min): 2.05%; remaining at 2 h, 10 uM ([8]; pooled mouse plasma, 120 min, read-out: % Remaining at Each Time Point: 120 min): 0.35%; remaining at 3 h, 10 uM ([8]; pooled mouse plasma, 180 min, read-out: % Remaining at Each Time Point: 180 min): 0.14%
6 | H-WQEMGYIFYPRKLR-OH [compound 39] | 100 | 39.5 | 38.8 | 54.9 | 24 | 16.3 | 84.3% | 80.8 | 22.2 | 114 | –

The next lines start with results.

Row | % Remaining at Each Time Point: 0 min [7] [%] | remaining at 0.25 h, 100 uM [7] [%] | remaining at 0.5 h, 100 uM [7] [%] | remaining at 1 h, 100 uM [7] [%] | remaining at 2 h, 100 uM [7] [%] | remaining at 3 h, 100 uM [7] [%] | Substance | Free Fatty Acid Levels in 3T3-L1 Adipocytes Expressed as a Percent of Isoproterenol Control: Percent of Control Value (3T3-L1 Adipocytes [3]) | Free Fatty Acid Levels in Human Primary Adipocytes Expressed as a Percent of Forskolin Control: Percent of Control Value (Human Primary Adipocytes [4]) [%] | Free Fatty Acid Levels in Human Primary Adipocytes Expressed as a Percent of Isoproterenol Control: Percent of Control Value (Human Primary Adipocytes [5]) [%] | Free Fatty Acid Levels in 3T3-L1 Adipocytes Expressed as a Percent of Forskolin Control: Percent of Control Value (3T3-L1 Adipocytes [6]) [%] | also measured
7 | 100 | 56.7 | 49 | 38.9 | 23.8 | 18.3 | H-MRWQEMGYIFYPR-OH [compound 47] | 24.5% | 89.9 | 60.5 | 45.3 | –
8 | 100 | 47.5 | 38.9 | 38 | 36.3 | 38.3 | H-MRWQEMQYIFYPR-OH [compound 209] | 30.1% | 90.1 | 66.8 | 33.3 | –
